ChEMBL document CHEMBL1201862, “PubChem BioAssay data set” (2004)
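Each compound was tested at five concentrations against cells in 96-well plates for 48 hours. GI50 = concentration required for 50% inhibition of growth.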 Calls of active or inactive are those of the source. Cut-off read from the data, not from the text of the source: active = GI50 up to about 1.1 µM and inactive = higher.

Assays:
Test in all cases: NCI-60 cell line screen, 48 h
MCF7 = tested on: MCF7
KM12 = tested on: KM12
786-0 = tested on: 786-0
HT-29 = tested on: HT-29
RPMI-8226 = tested on: RPMI-8226
K562 = tested on: K562
MDA-MB-435 = tested on: MDA-MB-435
MDA-MB-231 = tested on: MDA-MB-231
HCC 2998 = tested on: HCC 2998
ACHN = tested on: ACHN
UO-31 = tested on: UO-31
NCI-H522 = tested on: NCI-H522
SW-620 = tested on: SW-620
SNB-75 = tested on: SNB-75
NCI-H226 = tested on: NCI-H226
HL-60 = tested on: HL-60
SNB-19 = tested on: SNB-19
TK-10 = tested on: TK-10
DU-145 = tested on: DU-145
HCT-116 = tested on: HCT-116
OVCAR-4 = tested on: OVCAR-4
PC-3 = tested on: PC-3
RXF 393 = tested on: RXF 393
OVCAR-8 = tested on: OVCAR-8
OVCAR-5 = tested on: OVCAR-5
SK-MEL-5 = tested on: SK-MEL-5
EKVX = tested on: EKVX
SN12C = tested on: SN12C
CCRF-CEM = tested on: CCRF-CEM
SK-OV-3 = tested on: SK-OV-3
MDA-N = tested on: MDA-N
HOP-92 = tested on: HOP-92
OVCAR-3 = tested on: OVCAR-3
T47D = tested on: T47D
UACC-257 = tested on: UACC-257
NCI-H460 = tested on: NCI-H460
SF-539 = tested on: SF-539
NCI-H23 = tested on: NCI-H23
HCT-15 = tested on: HCT-15
MOLT-4 = tested on: MOLT-4
M14 = tested on: M14
NCI/ADR-RES = tested on: NCI/ADR-RES
SF-295 = tested on: SF-295
HOP-62 = tested on: HOP-62
SF-268 = tested on: SF-268
SK-MEL-2 = tested on: SK-MEL-2
U-251 = tested on: U-251
SK-MEL-28 = tested on: SK-MEL-28
IGROV-1 = tested on: IGROV-1
BT-549 = tested on: BT-549
COLO 205 = tested on: COLO 205
A549 = tested on: A549
Hs-578T = tested on: Hs-578T
Malme-3M = tested on: Malme-3M
LOX IMVI = tested on: LOX IMVI
UACC-62 = tested on: UACC-62
CAKI-1 = tested on: CAKI-1
A498 = tested on: A498

SMILES: CC/C(Cl)=N\OC(=O)Nc1ccccc1OC(F)(F)F
- GI50 (MCF7): 9.12 µM (inactive)
- GI50 (KM12): 20.6 µM (inactive)
- GI50 (786-0): 10.1 µM (inactive)
- GI50 (HT-29): 21.3 µM (inactive)
- GI50 (RPMI-8226): 1.73 µM (inactive)
- GI50 (K562): 1.95 µM (inactive)
- GI50 (MDA-MB-435): 19.4 µM (inactive)
- GI50 (MDA-MB-231): 17.1 µM (inactive)
- GI50 (HCC 2998): 18.6 µM (inactive)
- GI50 (ACHN): 1.91 µM (inactive)
- GI50 (UO-31): 8.18 µM (inactive)
- GI50 (NCI-H522): 0.665 µM (active)
- GI50 (SW-620): 2.52 µM (inactive)
- GI50 (SNB-75): 19.7 µM (inactive)
- GI50 (NCI-H226): 19.1 µM (inactive)
- GI50 (HL-60): 1.97 µM (inactive)
- GI50 (SNB-19): 22.5 µM (inactive)
- GI50 (TK-10): 11.6 µM (inactive)
- GI50 (DU-145): 18.7 µM (inactive)
- GI50 (HCT-116): 7.08 µM (inactive)
- GI50 (OVCAR-4): 19.8 µM (inactive)
- GI50 (PC-3): 18.1 µM (inactive)
- GI50 (RXF 393): 16.7 µM (inactive)
- GI50 (OVCAR-8): 17.7 µM (inactive)
- GI50 (OVCAR-5): 20.1 µM (inactive)
- GI50 (SK-MEL-5): 7.38 µM (inactive)
- GI50 (EKVX): 7 µM (inactive)
- GI50 (SN12C): 7.05 µM (inactive)
- GI50 (CCRF-CEM): 1.75 µM (inactive)
- GI50 (SK-OV-3): 20.2 µM (inactive)
- GI50 (MDA-N): 8.47 µM (inactive)
- GI50 (HOP-92): 2.39 µM (inactive)
- GI50 (OVCAR-3): 8.22 µM (inactive)
- GI50 (T47D): 4.32 µM (inactive)
- GI50 (UACC-257): 17.2 µM (inactive)
- GI50 (NCI-H460): 20.7 µM (inactive)
- GI50 (SF-539): 12.4 µM (inactive)
- GI50 (NCI-H23): 20.9 µM (inactive)
- GI50 (HCT-15): 3.21 µM
- GI50 (MOLT-4): 1.81 µM (inactive)
- GI50 (M14): 6.9 µM (inactive)
- GI50 (NCI/ADR-RES): 14.9 µM (inactive)
- GI50 (SF-295): 17.2 µM (inactive)
- GI50 (HOP-62): 19 µM (inactive)
- GI50 (SF-268): 25.2 µM (inactive)
- GI50 (SK-MEL-2): 17.7 µM (inactive)
- GI50 (U-251): 26.4 µM (inactive)
- GI50 (SK-MEL-28): 20.1 µM (inactive)
- GI50 (IGROV-1): 15.8 µM (inactive)
- GI50 (BT-549): 3.11 µM (inactive)
- GI50 (COLO 205): 2.1 µM (inactive)
- GI50 (A549): 22.6 µM (inactive)
- GI50 (Hs-578T): 30.2 µM (inactive)
- GI50 (Malme-3M): 4.52 µM (inactive)
- GI50 (LOX IMVI): 2.34 µM (inactive)
- GI50 (UACC-62): 17 µM (inactive)
- GI50 (CAKI-1): 1.89 µM (inactive)
- GI50 (A498): 19.6 µM (inactive)
